In patent US6960321B1, “Sterilization of fire sprinkler systems” (priority 1999, dated 2005):

Assays:
Low Nutrient Bacteria = test: MICkit microbiological testing of pipe water and scrapings, low nutrient bacteria; format: cell-based
Protocol: (§1) One end cap of the pipe was removed and the contaminated water poured out of the pipe and a pre-sterilization sample of the water and scrapings from the interior pipe wall were taken under sterile conditions for microbiological testing employing a MICkit™ supplied by Bioindustrial Technologies, Inc., Georgetown, Tex. The microbiological samples were incubated for three weeks at 35° C. and observed for microbiological growth.
(§2) Steam was then injected into the test pipe by opening the ball valve slowly with the steam pressure at 30 lbs pressure (135° C.). The temperature at the end of the test pipe rapidly rose to 94° C. and then appeared to remain nearly constant. The ball valve was then closed and the pipe cooled to room temperature. The condensate water and scrapings from the interior of the test pipe were collected by removal of the pipe from the adapter under sterile conditions. The samples so collected were microbiologically tested as above.
(§3) The end cap was then replaced with a ball valve and the steam sterilization was repeated. The ball valve at the end of the pipe was opened slightly to allow condensate and live steam to escape. The temperature at the end of the pipe rapidly rose to 110° C. The test was terminated by closing the ball valves and allowing the pipe to cool to room temperature. The pipe was again sampled for microbiological testing as above.
(§4) Microbiologically contaminated water was obtained from a “dead end” water feed-line to a fire protection system and was assayed microbiologically using the MICkit™ giving the following results after only 2 days of incubation at 35° C.:
(§5) The steam was allowed to slowly enter the pipe by regulating the input ball valve with the outlet ball valve open. Steam flowed through the pipe, heating it rapidly to near 100° C. The outlet ball valve was then nearly closed allowing the steam pressure in the pipe to increase. The temperature at the end of the pipe reached 135° C. and was kept there for five minutes. The inlet and outlet ball valves were closed and the pipe with the valves closed was removed and cooled in a stream of water. A small amount of sterile water (autoclaved at 121° C. for 15 minutes) was added to the sterilized pipe and the pipe raised, lowered and rotated to rinse the inside of the pipe system. The pipe was then opened and the water and scrapings from the side of the pipe were taken using sterile techniques for microbiological analysis.
(§6) The drained pipe was then sterilized as in Example 2 (per FIG. 2) using steam and a temperature of 135° C. by controlling the inlet and outlet ball valves. The ball valves at the ends of the pipe were then closed, the pipe removed from the test station and cooled with water. A small amount of sterile water was introduced and the inside of the pipe rinsed with it for several minutes. The pipe was then opened and the water and scrapings from the side of the pipe taken for microbiological analysis.

Iron Related Bacteria = test: MICkit microbiological testing of pipe water and scrapings, iron related bacteria; format: cell-based
Protocol: as §1, §2, §3, §4, §5, §6

Acid Producing Bacteria = test: MICkit microbiological testing of pipe water and scrapings, acid producing bacteria; format: cell-based
Protocol: as §1, §2, §3, §4, §5, §6

[1] = tested on: Sulfate Reducing Bacteria; test: MICkit microbiological testing of pipe water and scrapings, sulfate reducing bacteria; format: cell-based
Protocol: as §1, §2, §3, §4, §5, §6

[2] = tested on: aerobic bacteria (colony forming units); test: Aerobic plate count of pipe water and scrapings; format: cell-based
Protocol: Microbiologically contaminated water was obtained from a “dead end” water feed-line to a fire protection system and was assayed microbiologically using the […] giving the following results after only 2 days of incubation at 35° C.: [table] The steam was allowed to slowly enter the pipe by regulating the input ball valve with the outlet ball valve open. Steam flowed through the pipe, heating it rapidly to near 100° C. The outlet ball valve was then nearly closed allowing the steam pressure in the pipe to increase. The temperature at the end of the pipe reached 135° C. and was kept there for five minutes. The inlet and outlet ball valves were closed and the pipe with the valves closed was removed and cooled in a stream of water. A small amount of sterile water (autoclaved at 121° C. for 15 minutes) was added to the sterilized pipe and the pipe raised, lowered and rotated to rinse the inside of the pipe system. The pipe was then opened and the water and scrapings from the side of the pipe were taken using sterile techniques for microbiological analysis. The drained pipe was then sterilized as in Example 2 (per FIG. 2) using steam and a temperature of 135° C. by controlling the inlet and outlet ball valves. The ball valves at the ends of the pipe were then closed, the pipe removed from the test station and cooled with water. A small amount of sterile water was introduced and the inside of the pipe rinsed with it for several minutes. The pipe was then opened and the water and scrapings from the side of the pipe taken for microbiological analysis.

[3] = Analysis of residual sodium hypochlorite in water standing in iron pipe; format: physicochemical; settings: 50 ppm in potable tap water in iron pipe, ambient temperature, after 24 hours
Description: The sterilized pipe from Example 2 was then filled with potable tap water containing 50 ppm sodium hypochlorite and allowed to stand at ambient temperature. The sodium hypochlorite, being an oxidizing agent, rapidly dissipated when in contact with the interior iron pipe surface.

[4] = Example 3, steam-sterilized pipe filled with potable tap water containing 50 ppm sodium hypochlorite, 24 hours plus seven days at ambient temperature
[5] = Example 5, sterilized pipe recontaminated 16 hours with dead end water, then tap water with 50 ppm sodium hypochlorite overnight, incubation 15 days
[6] = Example 1, contaminated 1-inch sprinkler pipe, steam, pipe end 94° C., capped end, incubated three weeks at 35° C.
[7] = Example 1, steam repeated with outlet ball valve, pipe end 110° C., incubated three weeks at 35° C.
[8] = Example 2, new pipe infected with dead end water, steam 135° C. for five minutes, incubation 15 days
[9] = Example 4, chemically cleaned contaminated pipe, steam 135° C., after 15 days

OCl [sodium hypochlorite, reference compound]
positive: LNB (Low Nutrient Bacteria; [5])
< 1 colony forming units per mil.: APC [2, 4] | APC [2, 5]
negative: LNB (Low Nutrient Bacteria; [4]) | IRB (Iron Related Bacteria; [4]) | IRB (Iron Related Bacteria; [5]) | APB (Acid Producing Bacteria; [4]) | APB (Acid Producing Bacteria; [5]) | SRB [1, 4] | SRB [1, 5]
0 ppm: sodium hypochlorite remaining in the water [3]

O [steam]
negative: LNB (Low Nutrient Bacteria; [8]) | LNB (Low Nutrient Bacteria; [9]) | IRB (Iron Related Bacteria; [8]) | IRB (Iron Related Bacteria; [9]) | APB (Acid Producing Bacteria; [8]) | APB (Acid Producing Bacteria; [9]) | SRB [1, 8] | SRB [1, 9]
Negative: LNB (Low Nutrient Bacteria; [6]) | LNB (Low Nutrient Bacteria; [7]) | IRB (Iron Related Bacteria; [6]) | IRB (Iron Related Bacteria; [7]) | APB (Acid Producing Bacteria; [6]) | APB (Acid Producing Bacteria; [7]) | SRB [1, 6] | SRB [1, 7]
< 1 colony forming units per mil.: APC [2, 8] | APC [2, 9]
